Experiments:
[1] = molecular target: T1, interaction between IL-17RB and MLK4 (Homo sapiens, UniProt Q5TCX8); test: Co-immunoprecipitation of IL-17RB and MLK4 after peptide pretreatment and rIL-17B; format: cell-based; settings: 293T cells expressing Flag-MLK4 and HA-IL-17RB; peptides 0, 0.1, 1, 10, 50, 100 ng/ml for 30 mins, then rIL-17B 30 mins
T1 construct: host or cells: 293T (HEK293T)
From the text: (§1) FIGS. 7A to 7J include charts showing that disruption of the interaction between IL-17RB and MLK4 by the loop peptide blocks oncogenic progression. (FIG. 7A) Peptides TAT48-57 (Control) (SEQ ID NO: 21) and TAT-IL-17RB403-416 (Loop) (SEQ ID NO: 30) used for the following experiments. (FIG. 7B) Immunoblotting analysis of IL-17RB binding to MLK4 with Loop peptide treatment. 293T cells expressing Flag-MLK4 and HA-IL-17RB were pretreated with the control and loop peptides with different dose (0, 0.1, 1, 10, 50, 100 ng/ml) for 30 mins, and then added rIL-17B for 30 mins. The cell lysates were reciprocally co-immunoprecipitated with anti-Flag and anti-HA and blotted with the indicated antibodies or directly immunoblotted with the indicated antibodies as the input controls. […] CCL20 and TFF/mRNA expression of these cells were measured by RT-qPCR (n=3) (FIG. 7D), the same cells were for invasion assay (n=4) (FIG. 7E) and SACF assay (n=4) (FIG. 7F). […] (FIG. 7I) The experimental EKP mice (n=7 for each group) were euthanized at Day 56, and the metastatic tumor nodules in the lungs were counted. […]
Whole-cell lysates were prepared as previously described (6, 7). […] After extensive washing with diluted lysis buffer (0.01% Triton X-100), IL-17RB and its associated proteins were analyzed by immunoblotting analysis. […]

[2] = test system: pancreatic cancer cells expressing IL-17RB; test: RT-qPCR of cytokine gene expression (CCL20, TFF1) after peptide pretreatment and rIL-17B; format: cell-based, human; settings: CFPAC1 and PDX-derived cells; peptide 50 ng/ml 30 mins, then rIL-17B 2 hrs
From the text: as §1, with “mins.” for “mins. The cell lysates were reciprocally co-immunoprecipitated with anti-Flag and anti-HA and blotted with the indicated antibodies or directly immunoblotted with the indicated antibodies as the input controls.”
FIGS. 19A to 19D include charts showing that treatment with the loop peptide suppresses aggressive behavior of patient-derived pancreatic tumor cells. […] (FIG. 19C and FIG. 19D) These cells were measured by RT-qPCR for the cytokine gene mRNA expression (n=3), or for Invasion assay (n=4) (FIG. 19C) and SACF assay (n=4) (FIG. 19D). […]

[3] = test system: PDX-derived tumor cells (PC080, PC084); test: Aggressive behavior of PDX-derived pancreatic tumor cells (RT-qPCR, invasion, SACF); format: cell-based, human; settings: peptides 30 mins, then 50 ng/ml rIL-17B
Procedure: FIGS. 19A to 19D include charts showing that treatment with the loop peptide suppresses aggressive behavior of patient-derived pancreatic tumor cells. (FIG. 19A) CFPAC1 cells were treated with Alexa Fluor 568-labeled or non-labeled cold peptides of TAT48-57 (Control) and TAT-IL-17R403-416 (Loop) for 30 mins, respectively. Confocal microscopy was used for visualization of peptide penetration into cells. (FIG. 19B) The PDX-derived tumor cells (PC080 left, PC084 right) were pretreated with the peptides for 30 mins and then treated with 50 ng/ml rIL-17B for 2 hrs in serum-free conditions. (FIG. 19C and FIG. 19D) These cells were measured by RT-qPCR for the cytokine gene mRNA expression (n=3), or for Invasion assay (n=4) (FIG. 19C) and SACF assay (n=4) (FIG. 19D). Data in (FIG. 19B—FIG. 19D) are mean±s.d. * P<0.05, **P<0.001 by two-tailed Student's t-test.

T1 sequence (Q5TCX8 whole entry): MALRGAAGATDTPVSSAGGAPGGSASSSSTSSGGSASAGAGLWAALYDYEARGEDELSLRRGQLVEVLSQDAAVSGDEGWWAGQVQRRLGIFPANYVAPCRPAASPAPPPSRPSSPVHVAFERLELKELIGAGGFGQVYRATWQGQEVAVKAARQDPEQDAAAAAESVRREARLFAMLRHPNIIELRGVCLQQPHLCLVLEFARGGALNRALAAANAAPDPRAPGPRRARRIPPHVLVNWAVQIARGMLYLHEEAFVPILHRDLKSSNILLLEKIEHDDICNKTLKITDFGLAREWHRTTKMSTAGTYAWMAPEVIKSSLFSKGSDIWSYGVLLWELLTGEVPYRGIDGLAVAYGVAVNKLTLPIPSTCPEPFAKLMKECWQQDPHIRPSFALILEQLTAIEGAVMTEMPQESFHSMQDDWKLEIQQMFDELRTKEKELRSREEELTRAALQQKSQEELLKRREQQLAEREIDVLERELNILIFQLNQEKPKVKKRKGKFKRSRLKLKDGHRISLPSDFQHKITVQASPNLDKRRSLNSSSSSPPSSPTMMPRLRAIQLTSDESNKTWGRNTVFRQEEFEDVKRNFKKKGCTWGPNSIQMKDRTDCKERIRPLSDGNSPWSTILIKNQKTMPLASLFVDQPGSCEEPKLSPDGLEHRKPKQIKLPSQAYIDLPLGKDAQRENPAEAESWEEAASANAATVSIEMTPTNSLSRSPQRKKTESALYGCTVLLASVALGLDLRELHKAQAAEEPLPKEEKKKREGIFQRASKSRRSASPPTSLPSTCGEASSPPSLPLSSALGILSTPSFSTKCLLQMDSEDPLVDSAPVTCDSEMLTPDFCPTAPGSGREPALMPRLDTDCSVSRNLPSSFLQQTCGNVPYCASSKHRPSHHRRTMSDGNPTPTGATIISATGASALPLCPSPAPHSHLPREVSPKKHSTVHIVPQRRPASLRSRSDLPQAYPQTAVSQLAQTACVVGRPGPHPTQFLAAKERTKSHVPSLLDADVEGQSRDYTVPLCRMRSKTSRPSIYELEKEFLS

Question: Which results are given for “RKKRRQRRRVCDGTCGKSEGSPS (IL-17RB inhibitory peptide, fusion protein) [loop peptide]”?
Answer: interaction between IL-17RB and MLK4 (co-IP) [1]: disrupted; cytokine gene expression (CCL20, TFF1 mRNA) [2]: diminished; aggressive behavior of patient-derived pancreatic tumor cells [3]: suppresses
